According to patent US5364882A, “Oxysulfonyl urea ACAT inhibitors” (Warner-Lambert Company, priority 1992, dated 1994):

Key:
[1] = APCC in vivo screen: blood cholesterol in rats on high fat, high cholesterol diet with 0.5% cholic acid; parameters: species or system male Sprague-Dawley rats; conditions: 30 mg/kg single dose at 4 PM, high cholesterol diet overnight, blood at 8 AM, vehicle CMC/Tween
Description: In one in vivo screen designated APCC, male Sprague-Dawley rats (200 to 225 g) were randomly divided into treatment groups and dosed at 4 PM with either vehicle (CMC/Tween) or suspensions of compounds in vehicle (30 mg/kg). The normal chow diet was then replaced with a high fat, high cholesterol diet with 0.5% cholic acid. The rats consumed this diet ad libitum during the night and were sacrificed at 8 AM to obtain blood samples for cholesterol analysis using standard procedures. Statistical differences between mean cholesterol values for the same vehicle were determined using analysis of variance followed by Fisher's least significant test.

[2] = molecular target: T1, acyl-CoA: cholesterol acyltransferase (ACAT) (Oryctolagus cuniculus, UniProt G1SFD9); experiment: In vitro ACAT inhibition (IAI): formation of radiolabeled cholesterol oleate from radiolabeled oleic acid in rabbit intestinal microsomes; type: biochemical; conditions: concentration required to inhibit enzyme activity by 50%
T1 sequence (G1SFD9 1-524): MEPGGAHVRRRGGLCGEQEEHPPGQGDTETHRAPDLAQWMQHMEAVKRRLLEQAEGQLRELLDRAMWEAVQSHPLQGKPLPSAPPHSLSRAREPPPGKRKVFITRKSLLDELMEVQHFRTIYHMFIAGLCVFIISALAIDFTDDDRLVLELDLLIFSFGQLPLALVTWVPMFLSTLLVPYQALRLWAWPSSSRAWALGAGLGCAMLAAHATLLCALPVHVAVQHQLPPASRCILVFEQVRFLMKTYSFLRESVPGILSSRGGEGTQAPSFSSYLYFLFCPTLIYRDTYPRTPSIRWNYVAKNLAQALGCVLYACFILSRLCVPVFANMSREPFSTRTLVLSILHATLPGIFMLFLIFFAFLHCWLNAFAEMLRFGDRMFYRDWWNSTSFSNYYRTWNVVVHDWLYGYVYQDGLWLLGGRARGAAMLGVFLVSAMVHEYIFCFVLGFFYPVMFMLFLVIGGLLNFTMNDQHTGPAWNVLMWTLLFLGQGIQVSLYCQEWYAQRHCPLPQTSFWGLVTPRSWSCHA
Description: The ability of representative compounds of the present invention to inhibit ACAT was measured using an in vitro test more fully described in F. J. Field and R. G. Salone, Biochemica et Biophysica 712:557-570 (1982). The test assesses the ability of a test compound to inhibit the acylation of cholesterol by oleic acid by measuring the amount of radiolabeled cholesterol oleate formed from radiolabeled oleic acid in a tissue preparation containing rabbit intestinal microsomes.

| IC50 [2] [µM] | Structure (SMILES) | % Change (mg/dl) in cholesterol [1] [%] |
| --- | --- | --- |
|  | CCCCCCCCCCCCCCCCCCOS(=O)(=O)NC(=O)Nc1c(C(C)C)cccc1C(C)C [Example 2, Octadecyl [[[2,6-bis(1-methylethyl)phenyl]amino]carbonyl]sulfamate] | -42 |
| 8.7 | CCCCCCC(C)OS(=O)(=O)NC(=O)Nc1c(C(C)C)cccc1C(C)C (racemic) [Example 6, (±) 1-Methylheptyl [[[2,6-bis(1-methylethyl)phenyl]amino]carbonyl]sulfamate] | -43 |
|  | CCCCCCCCCCCCOS(=O)(=O)NC(=O)Nc1c(C(C)C)cccc1C(C)C [Example 3, Dodecyl [[[2,6-bis(1-methylethyl)phenyl]amino]carbonyl]sulfamate] | -75 |
|  | CCCCCCOS(=O)(=O)NC(=O)Nc1c(C(C)C)cccc1C(C)C [Example 1, Hexyl [[[2,6-bis(1-methylethyl)phenyl]amino]carbonyl]sulfamate] | -56 |
| 35 | CC(C)c1cccc(C(C)C)c1NC(=O)NS(=O)(=O)Oc1c(C(C)C)cccc1C(C)C [Example 7, 2,6-bis(1-methylethyl)phenyl [[[2,6-bis (1-methylethyl)phenyl]amino]carbonyl]sulfamate] | -51 |
| > 10 | CCCCCCCCCCOS(=O)(=O)NC(=O)Nc1c(C(C)C)cccc1C(C)C [Example 5, Decyl [[[2,6-bis(1-methylethyl)phenyl]amino]carbonyl]sulfamate] | -31 |
|  | CCCCCCCCCCC(C)OS(=O)(=O)NC(=O)Nc1c(C(C)C)cccc1C(C)C (racemic) [Example 8, (±) 1-Methylundecyl [[[2,6-bis(1-methylethyl)phenyl]amino]carbonyl]sulfamate] | -68 |
|  | CCCCCCCCCCCCOS(=O)(=O)NC(=O)Nc1c(C(C)C)cccc1C(C)C.[Na] | -58 |
